Experimental data published in the NIST ThermoML archive (doi:10.1021/je7002447).

Columns and labels:
[1] = 298.15 K; 101.33 kPa; Liquid
[2] = excess molar enthalpy (molar enthalpy of mixing); xn = mol fraction of the nth substance listed; details: 298.15 K, 101.3 kPa, Liquid, Flow calorimetry

ClCCc1ccccc1 [(2-chloroethyl)benzene]
Details | mass density [kg/m3]
[1] | 1066.91

ClCCc1ccccc1 [(2-chloroethyl)benzene] + CCCCc1ccccc1
[2]
Details | excess molar enthalpy [kcal/mol]
x1 = 0.1063 | 0.0238
x1 = 0.1295 | 0.028
x1 = 0.1655 | 0.0343
x1 = 0.2293 | 0.0443
x1 = 0.3085 | 0.052
x1 = 0.373 | 0.0564
x1 = 0.4424 | 0.0604
x1 = 0.4716 | 0.0607
x1 = 0.5434 | 0.061
x1 = 0.6134 | 0.0592
x1 = 0.7041 | 0.054
x1 = 0.7604 | 0.0477
x1 = 0.8264 | 0.0382
x1 = 0.8639 | 0.0315
x1 = 0.9225 | 0.0195

ClCCc1ccccc1 [(2-chloroethyl)benzene] + CCCc1ccccc1
[2]
Details | excess molar enthalpy [kcal/mol]
x1 = 0.1173 | 0.0173
x1 = 0.1375 | 0.0187
x1 = 0.1662 | 0.0221
x1 = 0.2099 | 0.0266
x1 = 0.285 | 0.033
x1 = 0.347 | 0.0364
x1 = 0.4147 | 0.0393
x1 = 0.4436 | 0.0405
x1 = 0.5152 | 0.0411
x1 = 0.5863 | 0.0404
x1 = 0.6145 | 0.0388
x1 = 0.6801 | 0.0369
x1 = 0.7392 | 0.0319
x1 = 0.8096 | 0.0264
x1 = 0.85 | 0.0222
x1 = 0.914 | 0.0138

ClCCc1ccccc1 [(2-chloroethyl)benzene] + CCc1ccccc1
[2]
Details | excess molar enthalpy [kcal/mol]
x1 = 0.105 | 0.00798
x1 = 0.19 | 0.012
x1 = 0.2603 | 0.0148
x1 = 0.3194 | 0.0181
x1 = 0.3849 | 0.0191
x1 = 0.4841 | 0.0202
x1 = 0.5847 | 0.0193
x1 = 0.6524 | 0.0184
x1 = 0.7379 | 0.0159
x1 = 0.7897 | 0.0144
x1 = 0.8825 | 0.00832
x1 = 0.9037 | 0.00641

ClCCc1ccccc1 [(2-chloroethyl)benzene] + Cc1ccccc1
[2]
Details | excess molar enthalpy [kcal/mol]
x1 = 0.075 | -7.17e-05
x1 = 0.092 | 0
x1 = 0.1686 | 0.000191
x1 = 0.2332 | 0.000502
x1 = 0.2885 | 0.000645
x1 = 0.3782 | 0.0011
x1 = 0.4478 | 0.00131
x1 = 0.5195 | 0.00167
x1 = 0.5488 | 0.00177
x1 = 0.6186 | 0.00189
x1 = 0.6838 | 0.00184
x1 = 0.7643 | 0.00174
x1 = 0.8122 | 0.00163
x1 = 0.8439 | 0.00146
x1 = 0.8902 | 0.00115
x1 = 0.9068 | 0.00098

ClCCc1ccccc1 [(2-chloroethyl)benzene] + c1ccccc1
[2]
Details | excess molar enthalpy [kcal/mol]
x1 = 0.1016 | 0.00739
x1 = 0.145 | 0.00896
x1 = 0.2028 | 0.0105
x1 = 0.3115 | 0.0114
x1 = 0.4042 | 0.0112
x1 = 0.5044 | 0.00999
x1 = 0.5757 | 0.00856
x1 = 0.6706 | 0.00686
x1 = 0.7308 | 0.00581
x1 = 0.8028 | 0.00471
x1 = 0.8444 | 0.00354

ClCCCc1ccccc1 [(3-chloropropyl)benzene]
Details | mass density [kg/m3]
[1] | 1041.84

ClCCCc1ccccc1 [(3-chloropropyl)benzene] + CCCCc1ccccc1
[2]
Details | excess molar enthalpy [kcal/mol]
x1 = 0.1167 | 0.00734
x1 = 0.209 | 0.0142
x1 = 0.2605 | 0.0167
x1 = 0.3458 | 0.0197
x1 = 0.4134 | 0.0216
x1 = 0.5138 | 0.0227
x1 = 0.5849 | 0.0223
x1 = 0.6132 | 0.0214
x1 = 0.6789 | 0.0193
x1 = 0.7381 | 0.0172
x1 = 0.8087 | 0.0137
x1 = 0.9136 | 0.0075

ClCCCc1ccccc1 [(3-chloropropyl)benzene] + CCCc1ccccc1
[2]
Details | excess molar enthalpy [kcal/mol]
x1 = 0.0863 | 0.000884
x1 = 0.136 | 0.00158
x1 = 0.191 | 0.0022
x1 = 0.2394 | 0.00277
x1 = 0.3207 | 0.00327
x1 = 0.3863 | 0.00392
x1 = 0.4145 | 0.00411
x1 = 0.4856 | 0.00445
x1 = 0.5573 | 0.00466
x1 = 0.5861 | 0.00464
x1 = 0.6538 | 0.00464
x1 = 0.7157 | 0.00423
x1 = 0.7391 | 0.00428
x1 = 0.7906 | 0.00378
x1 = 0.8343 | 0.00311
x1 = 0.9042 | 0.00215
x1 = 0.9189 | 0.00191

ClCCCc1ccccc1 [(3-chloropropyl)benzene] + CCc1ccccc1
[2]
Details | excess molar enthalpy [kcal/mol]
x1 = 0.0766 | -0.00471
x1 = 0.1214 | -0.00691
x1 = 0.1717 | -0.00891
x1 = 0.2372 | -0.0103
x1 = 0.2931 | -0.0111
x1 = 0.3835 | -0.012
x1 = 0.4534 | -0.012
x1 = 0.5251 | -0.0117
x1 = 0.5544 | -0.0114
x1 = 0.6239 | -0.0103
x1 = 0.7133 | -0.00832
x1 = 0.7684 | -0.00719
x1 = 0.8327 | -0.00519
x1 = 0.8924 | -0.00335

ClCCCc1ccccc1 [(3-chloropropyl)benzene] + Cc1ccccc1
[2]
Details | excess molar enthalpy [kcal/mol]
x1 = 0.1072 | -0.0125
x1 = 0.1526 | -0.0165
x1 = 0.1936 | -0.0195
x1 = 0.2648 | -0.0232
x1 = 0.3244 | -0.0253
x1 = 0.3507 | -0.0253
x1 = 0.4187 | -0.0272
x1 = 0.4899 | -0.0259
x1 = 0.5193 | -0.0255
x1 = 0.5903 | -0.0243
x1 = 0.6576 | -0.0218
x1 = 0.6836 | -0.0205
x1 = 0.7423 | -0.018
x1 = 0.8121 | -0.0136
x1 = 0.8781 | -0.00882

ClCCCc1ccccc1 [(3-chloropropyl)benzene] + c1ccccc1
[2]
Details | excess molar enthalpy [kcal/mol]
x1 = 0.0913 | -0.00229
x1 = 0.1843 | -0.00478
x1 = 0.2316 | -0.00547
x1 = 0.3113 | -0.00717
x1 = 0.376 | -0.00822
x1 = 0.4455 | -0.00868
x1 = 0.5466 | -0.00868
x1 = 0.6164 | -0.0082
x1 = 0.7068 | -0.00705
x1 = 0.7834 | -0.00569
x1 = 0.8282 | -0.00476
x1 = 0.8577 | -0.00416

ClCc1ccccc1 [(chloromethyl)benzene]
Details | mass density [kg/m3]
[1] | 1094.82

ClCc1ccccc1 [(chloromethyl)benzene] + CCCCc1ccccc1
[2]
Details | excess molar enthalpy [kcal/mol]
x1 = 0.1194 | 0.033
x1 = 0.145 | 0.0402
x1 = 0.2028 | 0.0481
x1 = 0.2532 | 0.0596
x1 = 0.3114 | 0.0663
x1 = 0.4041 | 0.073
x1 = 0.5043 | 0.0762
x1 = 0.5756 | 0.0752
x1 = 0.6439 | 0.0712
x1 = 0.7307 | 0.0619
x1 = 0.7834 | 0.0522
x1 = 0.8444 | 0.0413
x1 = 0.8906 | 0.0294
x1 = 0.9313 | 0.0204

ClCc1ccccc1 [(chloromethyl)benzene] + CCCc1ccccc1
[2]
Details | excess molar enthalpy [kcal/mol]
x1 = 0.1315 | 0.0266
x1 = 0.2325 | 0.038
x1 = 0.3124 | 0.0468
x1 = 0.3772 | 0.0499
x1 = 0.4468 | 0.0527
x1 = 0.5478 | 0.0541
x1 = 0.645 | 0.0484
x1 = 0.7079 | 0.0443
x1 = 0.7842 | 0.0344
x1 = 0.8289 | 0.0245
x1 = 0.8791 | 0.0204
x1 = 0.9065 | 0.0154

ClCc1ccccc1 [(chloromethyl)benzene] + CCc1ccccc1
[2]
Details | excess molar enthalpy [kcal/mol]
x1 = 0.0962 | 0.0125
x1 = 0.1664 | 0.0181
x1 = 0.2102 | 0.0209
x1 = 0.2853 | 0.0242
x1 = 0.4151 | 0.0281
x1 = 0.5156 | 0.0284
x1 = 0.5866 | 0.0278
x1 = 0.6804 | 0.025
x1 = 0.7395 | 0.022
x1 = 0.8098 | 0.018
x1 = 0.8646 | 0.0136
x1 = 0.8949 | 0.00999

ClCc1ccccc1 [(chloromethyl)benzene] + Cc1ccccc1
[2]
Details | excess molar enthalpy [kcal/mol]
x1 = 0.1036 | 0.00576
x1 = 0.1877 | 0.00925
x1 = 0.2574 | 0.0113
x1 = 0.3161 | 0.0128
x1 = 0.3813 | 0.014
x1 = 0.4803 | 0.0143
x1 = 0.581 | 0.0133
x1 = 0.649 | 0.0124
x1 = 0.735 | 0.0109
x1 = 0.7871 | 0.00944
x1 = 0.8809 | 0.00571
x1 = 0.9024 | 0.00511

ClCc1ccccc1 [(chloromethyl)benzene] + Clc1ccccc1
[2]
Details | excess molar enthalpy [kcal/mol]
x2 = 0.1118 | 0.0144
x2 = 0.2012 | 0.0215
x2 = 0.2742 | 0.0245
x2 = 0.335 | 0.0271
x2 = 0.4304 | 0.0287
x2 = 0.5312 | 0.0272
x2 = 0.6018 | 0.0253
x2 = 0.6939 | 0.022
x2 = 0.7514 | 0.0187
x2 = 0.8193 | 0.015
x2 = 0.858 | 0.0123

c1ccccc1 [benzene]
Details | mass density [kg/m3]
[1] | 873.58

CCCCc1ccccc1 [butylbenzene]
Details | mass density [kg/m3]
[1] | 856.29

CCCCc1ccccc1 [butylbenzene] + Clc1ccccc1
[2]
Details | excess molar enthalpy [kcal/mol]
x2 = 0.133 | -0.00973
x2 = 0.1609 | -0.0115
x2 = 0.2036 | -0.0139
x2 = 0.2772 | -0.0177
x2 = 0.3383 | -0.0199
x2 = 0.4341 | -0.0219
x2 = 0.535 | -0.0209
x2 = 0.6054 | -0.0194
x2 = 0.6971 | -0.0164
x2 = 0.8036 | -0.0133
x2 = 0.902 | -0.00822

Clc1ccccc1 [chlorobenzene]
Details | mass density [kg/m3]
[1] | 1101.17

Clc1ccccc1 [chlorobenzene] + CCc1ccccc1
[2]
Details | excess molar enthalpy [kcal/mol]
x1 = 0.1075 | -0.0131
x1 = 0.1308 | -0.0157
x1 = 0.1671 | -0.0186
x1 = 0.2864 | -0.0276
x1 = 0.3111 | -0.029
x1 = 0.4453 | -0.0335
x1 = 0.4745 | -0.0346
x1 = 0.5463 | -0.0341
x1 = 0.6436 | -0.0301
x1 = 0.7625 | -0.0261
x1 = 0.8784 | -0.015
x1 = 0.9233 | -0.00956

Clc1ccccc1 [chlorobenzene] + Cc1ccccc1
[2]
Details | excess molar enthalpy [kcal/mol]
x1 = 0.1156 | -0.0126
x1 = 0.2072 | -0.0198
x1 = 0.2584 | -0.0226
x1 = 0.3433 | -0.0261
x1 = 0.4107 | -0.0272
x1 = 0.5111 | -0.0274
x1 = 0.6106 | -0.0256
x1 = 0.6765 | -0.023
x1 = 0.807 | -0.0161
x1 = 0.9127 | -0.00798

Clc1ccccc1 [chlorobenzene] + c1ccccc1
[2]
Details | excess molar enthalpy [kcal/mol]
x1 = 0.0804 | -0.000502
x1 = 0.1272 | -0.000669
x1 = 0.1794 | -0.000932
x1 = 0.2258 | -0.0011
x1 = 0.3043 | -0.00122
x1 = 0.3684 | -0.00131
x1 = 0.3962 | -0.00139
x1 = 0.4666 | -0.00136
x1 = 0.5384 | -0.00129
x1 = 0.5675 | -0.00131
x1 = 0.6363 | -0.00117
x1 = 0.6999 | -0.001
x1 = 0.7777 | -0.00086
x1 = 0.8235 | -0.000741
x1 = 0.8974 | -0.000406

CCc1ccccc1 [ethylbenzene]
Details | mass density [kg/m3]
[1] | 862.55

CCCc1ccccc1 [propylbenzene]
Details | mass density [kg/m3]
[1] | 857.62

CCCc1ccccc1 [propylbenzene] + Clc1ccccc1
[2]
Details | excess molar enthalpy [kcal/mol]
x2 = 0.1205 | -0.0121
x2 = 0.1859 | -0.0162
x2 = 0.2551 | -0.0211
x2 = 0.3394 | -0.0244
x2 = 0.4066 | -0.0261
x2 = 0.4774 | -0.0277
x2 = 0.5781 | -0.0261
x2 = 0.6727 | -0.0241
x2 = 0.7851 | -0.0189
x2 = 0.8796 | -0.0118
x2 = 0.9164 | -0.00782

Cc1ccccc1 [toluene]
Details | mass density [kg/m3]
[1] | 862.19
